In US20150065421A1, “BASAL INSULIN THERAPY” (SANOFI, priority 2012, published 2015):

Key:
[1] = tested on: people at high risk for vascular disease with either IFG, IGT, or early type 2 diabetes; test: ORIGIN trial: microvascular outcomes; type: in vivo, human
From the text: The composite microvascular outcome will be met by the development of any of the following: • Doubling of serum creatinine from study baseline (screening value) • Albuminuria progression, defined as a change from normoalbuminuria to either microalbuminuria or clinical proteinuria, or from microalbuminuria to clinical proteinuria using the definitions in the attached table.
• Requirement for renal replacement therapy (eg, dialysis, renal transplant), or death due to renal failure • Use of retinal photocoagulation or vitrectomy for diabetic retinopathy, including macular edema
There were 2 co-primary composite CV outcomes. The first was CV death, non-fatal MI or non-fatal stroke, and the second was a composite of any of these events or a revascularization procedure or hospitalization for heart failure. Secondary outcomes included a composite microvascular outcome comprising a doubling of serum creatinine from baseline, progression of albuminuria category from normoalbuminuria or microalbuminuria to microalbuminuria or overt nephropathy, renal replacement therapy, renal death, retinal photocoagulation or vitrectomy for retinopathy. They also included new type 2 diabetes developing by the time of the 1st post-trial oral glucose tolerance test in participants without baseline diabetes, and all-cause mortality. Other outcomes included incident cancers, CV hospitalizations, and angina. Cardiovascular and cancer outcomes were reviewed by adjudicators masked to treatment allocation. Episodes of hypoglycaemia since the prior visit were recorded at each visit. Symptomatic hypoglycemia was classified as confirmed if a concomitant recorded capillary glucose level was <3 mmol/L (54 mg/dL). Severe hypoglycemia was defined as hypoglycemia that required assistance plus either prompt recovery with glucose or glucagon or a documented capillary glucose ≦2.0 (36 mg/dL). New diabetes was diagnosed if 2 consecutive FPG levels within a 4-month period were ≧7 mM (126 mg/dL) during the trial; a diagnosis of diabetes was made by a physician and a pharmacologic antidiabetic agent was being taken and there was evidence of either a FPG ≧7 mM (126 mg/dL) or any glucose value ≧11.1 mM (200 mg/dL); either 1 or more capillary glucose levels were ≧11.1 mM (200 mg/dl) and a lab-measured FPG was ≧7 mmol/l (126 mg/dl) or a lab measured random glucose level was ≧11.1 mM (200 mg/dl) during down-titration of glargine insulin; or any FPG was ≧7 mM (126 mg/dl) or 2 hour plasma glucose was ≧11.1 mM (200 mg/dl) during the first oral glucose tolerance test.
The microvascular outcome was a composite of: laser surgery or vitrectomy or blindness for diabetic retinopathy; development of renal death or the need for renal replacement treatment (dialysis or transplantation); doubling of serum creatinine; or progression from lesser to greater severity of microalbuminuria. The last 2 components are laboratory-based—the others are “clinical” microvascular outcomes.

[2] = tested on: people with IGT, IFG, or early diabetes; test: Double-blind pilot study HOE901/1021 (safety and feasibility); type: in vivo, human
From the text: The use of exogenous insulin in an IGT, IFG, or diabetic population might confer several potential metabolic and cardiovascular benefits: • 1. The fact that it is finely titratable and durable (compared to oral antidiabetic agents) may translate into a powerful effect to delay the exposure of target tissues to toxic levels of glycemia. • 2. Insulin-mediated suppression of circulating free fatty acids (FFA) will: • reduce VLDL synthesis and improve lipoprotein patterns (i.e. lower triglycerides, and increase HDL-C); • reduce lipotoxicity at the level of the beta cell and at insulin's target tissues; • reduce obligatory oxidative metabolism in ischemic myocardium. • 3. Exogenous insulin will prevent metabolic decompensation due to stress, that is either mild and frequent (i.e. daily stresses and minor illness or injury), or severe and less common (i.e. major injury, illness, surgery, vascular events). These stress events would normally suppress endogenous insulin responses even when a pharmacologic secretagogue or sensitizer is present; exogenous, injected insulin cannot be suppressed in such a way. • 4. Nitric oxide-mediated vasodilation and endothelial function are abnormal in those with IFG, IGT, or diabetes. Additionally, markers of endothelial inflammation are increased. These abnormalities are all improved by insulin treatment. […]

[3] = cited from earlier work
[4] = patients with a history of atrial fibrillation at baseline

In the case of “(Gly A21) Arg (B31) Arg (B32) human insulin [insulin glargine]”, the “Albumin Prog, N (%)” value ([1]; glargine group) is reported as 1154, the “Albumin Prog, Rate” value ([1]; glargine group) is reported as 3.3 and the “Clin Microvasc, N (%)” value ([1]; glargine group) is reported as 190. For the same substance, the “Clin Microvasc, Rate” value ([1]; glargine group) was 0.5, the “Double Cr, N (%)” value ([1]; glargine group) was 94 and the “Double Cr, Rate” value ([1]; glargine group) was 0.25. The “Laser/Vitrect, N (%)” value ([1]; glargine group) was 79, the “Laser/Vitrect, Rate” value ([1]; glargine group) was 0.22 and the “Microvascular, N (%)” value ([1]; glargine group) was 1280. For the same substance, the “Microvascular, Rate” value ([1]; glargine group) was 3.7, the “Renal Failure, N (%)” value ([1]; glargine group) was 36 and the “Renal Failure, Rate” value ([1]; glargine group) was 0.1. The “Laser/Vitrect, HR (95% CI)” value ([1]; glargine vs standard, P 0.016) was 0.59 (0.38, 0.91), the “Clin Microvasc, HR (95% CI)” value ([1]; glargine vs standard, P 0.038) was 0.74 (0.56, 0.98) and the “Microvascular, HR (95% CI)” value ([1]; glargine vs standard, P 0.066) was 0.90 (0.81, 1.01). For the same substance, the “Double Cr, HR (95% CI)” value ([1]; glargine vs standard, P 0.09) was 0.70 (0.46, 1.06), the “Albumin Prog, HR (95% CI)” value ([1]; glargine vs standard, P 0.17) was 0.92 (0.82, 1.04) and the “Renal Failure, HR (95% CI)” value ([1]; glargine vs standard, P 0.46) was 1.27 (0.67, 2.39). The “microvascular outcomes, difference to standard care” value ([1]; insulin glargine vs standard care) was “no statistically significant difference”, the “RR for Clinical Microvascular outcomes (non-laboratory-based)” value [1, 4] was 0.42 (0.19-0.91) and the “RR for microvascular outcome” value [1, 4] was 0.74 (0.55-0.98). The “relative risk (RR) for microvascular outcome” value ([1]; patients with baseline A1c<6.4%, not significant) was 1.08, the “relative risk (RR) for microvascular outcome” value ([1]; patients with baseline A1c≧6.4%, statistically significant) was 0.88 (0.79-0.98) and the “severity of hypoglycemia episodes” value ([2]; all episodes) was “mild”. The “subjects who experienced hypoglycemia” value ([2]; of 13 insulin glargine subjects, two weeks, calorie-restricted diet, titrated to FPG 80-95 mg/dL) was “Two”, the “mean duration of action” value ([3]; in vivo) was “approximately 20 hours” and the “duration of glucose lowering effect” value ([3]; smooth, without a definite peak) was 24 h.
